# Reference: ChEMBL document CHEMBL1135497, “Identification of potent and novel alpha4beta1 antagonists using in silico screening” (J Med Chem, 2002)
# pIC50: −log10 of the molar value.
# Molecular target: Integrin alpha-4/beta-1 (Homo sapiens, UniProt P05556+P13612)
# Assay: Inhibition of Very late antigen 4 (VLA-4) and VCAM-Ig fusion protein interaction
# Format: protein-complex assay
# Chain of Integrin alpha-4/beta-1 (P05556 whole entry, the tested form may be a part): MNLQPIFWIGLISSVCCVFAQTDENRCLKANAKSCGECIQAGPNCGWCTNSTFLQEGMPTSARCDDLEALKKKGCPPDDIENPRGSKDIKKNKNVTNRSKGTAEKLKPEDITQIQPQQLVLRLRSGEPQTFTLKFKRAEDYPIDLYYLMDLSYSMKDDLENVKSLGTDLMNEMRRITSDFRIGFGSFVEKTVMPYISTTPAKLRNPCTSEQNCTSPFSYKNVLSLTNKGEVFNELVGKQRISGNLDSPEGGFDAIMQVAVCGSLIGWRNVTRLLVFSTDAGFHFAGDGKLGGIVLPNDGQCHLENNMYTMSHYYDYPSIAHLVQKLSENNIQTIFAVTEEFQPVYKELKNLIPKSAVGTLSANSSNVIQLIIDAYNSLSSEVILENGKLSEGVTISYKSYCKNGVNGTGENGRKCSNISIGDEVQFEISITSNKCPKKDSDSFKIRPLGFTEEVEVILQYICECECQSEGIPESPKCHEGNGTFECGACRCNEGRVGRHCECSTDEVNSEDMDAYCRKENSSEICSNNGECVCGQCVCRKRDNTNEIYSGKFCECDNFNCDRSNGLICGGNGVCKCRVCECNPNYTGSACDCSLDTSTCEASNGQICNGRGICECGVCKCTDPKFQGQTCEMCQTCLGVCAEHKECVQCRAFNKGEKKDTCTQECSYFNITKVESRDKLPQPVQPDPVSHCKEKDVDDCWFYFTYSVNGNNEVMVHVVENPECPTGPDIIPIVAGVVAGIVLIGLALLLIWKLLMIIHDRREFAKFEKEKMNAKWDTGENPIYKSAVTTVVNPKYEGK
# Chain of Integrin alpha-4/beta-1 (P13612 whole entry, the tested form may be a part): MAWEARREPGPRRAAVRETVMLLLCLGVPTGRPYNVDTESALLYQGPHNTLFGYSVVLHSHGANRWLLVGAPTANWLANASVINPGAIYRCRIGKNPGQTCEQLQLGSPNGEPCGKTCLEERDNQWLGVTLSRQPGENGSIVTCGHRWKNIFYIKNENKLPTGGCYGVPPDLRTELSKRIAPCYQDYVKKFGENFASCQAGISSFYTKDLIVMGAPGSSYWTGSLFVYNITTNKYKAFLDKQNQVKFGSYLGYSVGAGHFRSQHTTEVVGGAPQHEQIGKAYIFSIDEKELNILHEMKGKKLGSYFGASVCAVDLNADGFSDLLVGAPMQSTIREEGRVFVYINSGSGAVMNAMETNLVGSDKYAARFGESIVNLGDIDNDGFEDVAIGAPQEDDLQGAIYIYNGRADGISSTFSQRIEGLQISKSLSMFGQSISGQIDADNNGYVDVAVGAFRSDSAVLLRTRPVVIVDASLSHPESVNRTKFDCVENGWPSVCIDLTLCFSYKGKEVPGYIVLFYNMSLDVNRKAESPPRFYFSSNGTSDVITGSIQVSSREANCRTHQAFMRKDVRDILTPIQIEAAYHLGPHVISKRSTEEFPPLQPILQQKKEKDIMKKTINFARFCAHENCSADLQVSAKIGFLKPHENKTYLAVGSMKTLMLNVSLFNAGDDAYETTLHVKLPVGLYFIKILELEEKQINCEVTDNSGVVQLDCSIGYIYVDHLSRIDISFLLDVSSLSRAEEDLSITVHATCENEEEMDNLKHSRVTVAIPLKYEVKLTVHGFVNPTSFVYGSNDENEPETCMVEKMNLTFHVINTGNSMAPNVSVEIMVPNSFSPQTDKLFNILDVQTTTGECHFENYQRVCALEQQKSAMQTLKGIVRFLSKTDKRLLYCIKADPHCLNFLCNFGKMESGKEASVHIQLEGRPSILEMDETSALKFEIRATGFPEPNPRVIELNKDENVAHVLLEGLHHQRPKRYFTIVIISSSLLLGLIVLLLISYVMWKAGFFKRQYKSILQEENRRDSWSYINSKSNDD
row,pIC50,SMILES
1,8.89,Cc1ccccc1NC(=O)Nc1ccc(CC(=O)Nc2ccc(C(C)CC(=O)O)cc2)cc1 (configuration not stated)
2,5.70,Cc1ccccc1NC(=O)Nc1ccc(CC(=O)Nc2cccc(C(O)CC(=O)O)c2)cc1 (configuration not stated)
3,5.52,Cc1ccccc1NC(=O)Nc1ccc(CC(=O)Nc2cn(CCC(=O)O)c(C)n2)cc1
4,4.82,Cc1ccccc1NC(=O)Nc1ccc(CC(=O)Nc2nc(CC(=O)O)cs2)cc1
5,6.10,Cc1ccccc1NC(=O)Nc1ccc(CC(=O)Nc2ccc3cnn(C(=O)NCC(=O)O)c3c2)cc1
6,7.17,Cc1ccccc1NC(=O)Nc1ccc(CC(=O)Nc2cccc(NC(=O)NCC(=O)O)c2)cc1
7,5.60,Cc1ccccc1NC(=O)Nc1ccc(CC(=O)Nc2cccc(C(C)CC(=O)O)c2)cc1 (configuration not stated)
8,5.92,Cc1ccccc1NC(=O)Nc1ccc(CC(=O)Nc2cccc(C(=O)NCC(=O)O)c2)cc1
9,4.94,Cc1ccccc1NC(=O)Nc1ccc(CC(=O)Nc2cccc(CCC(=O)O)c2)cc1
10,7.24,CC(=O)NC(Cc1ccc(NC(=O)Cc2ccc(NC(=O)Nc3ccccc3C)cc2)cc1)C(=O)O (configuration not stated)
11,5.64,Cc1ccccc1NC(=O)Nc1ccc(CC(=O)Nc2nnc(SCC(=O)O)s2)cc1
12,4.70,C=C(S/C(=N\C(=O)Cc1ccc(NC(=O)Nc2ccccc2C)cc1)NCCC(=O)O)c1ccccc1
